The values below come from patent US11708373B2, “5-alkylquinazoline derivative, method of preparing the same, and method of using the same” (Hefei University of Technology, priority 2020, dated 2023).

The test concerns breast cancer cells (MCF). The experiment in a line: MCF test of breast cancer cells. The class given is cell-based. An excerpt: Therefore, the compounds of the present application are expected to be useful in the treatment of various cancers, such as cervical cancer.

Take `COC(=O)C1=NC2(Nc3ccc(C)cc31)C(=O)Nc1ccc(C)cc12` (stereo not shown) [Compound II]: the “ED50, inhibitory activity in the MCF test of breast cancer cells” value was less than 10.0 µg/mL.
